Test results as given in patent US20120302530A1, “23-HYDROXY-BETULINIC ACID DERIVATIVES, PREPARATION METHODS AND USES THEREOF” (priority 2009, published 2012).

Tests used:
human tumor cell strains = test: MTT cytotoxicity, human tumor cell strains (summary statement); type: cell-based; conditions: some (unnamed) human tumor cell strains, 72 hours, read-out: EC50 of some tumor cells
Excerpt: We use human tumor cell lines to conduct cytotoxicity analysis. Thirty-one (31) kinds of human tumor cell strains are cultivated in the normal culture medium containing various compounds of zhangnan-5, zhangnan-7 and zhangnan-8. The human tumor lines are bought from ATCC and NCI, and is cultivated with DMEM culture solution containing 10% FBS in 370C couveuse containing 5% CO2. The merged cells are digested by trypsinase, and are counted after washed by the culture solution. 3000˜6000 cells are added into each hole of the 96-hole culture plate, and are hatched for 16 hours or 24 hours. Then, compounds zhangnan-5, zhangnan-7 and zhangnan-8 with different concentrations are added into the holes. Upon further cultivated for another 72 hours, MTT tests are conducted to cells in group treated with drugs and the control group cells, to determine the survival condition of the cells.

[1] = Pharmacokinetics of zhangnan-5 in mice; type: in vivo; conditions: both sexes, BlebC, mouse, oral, 100 mg/kg single dose, plasma, average +/− standard deviation
Description: (5) Pharmacokinetics research of the compound zhangnan-5 in mice body: (see Singh S S, Shah H, Gupta S, Jain M, Sharma K, Thakkar P, Shah R. Liquid chromatography—electrospray ionisation mass spectrometry method for the determination of escitalopram in human plasma and its application in bioequivalence study. J Chromatogr B Analyt Technol Biomed Life Sci. 2004 Nov. 25; 811 (2):209-15).
Four 8-week old BlebC mice (two male and two female) are used, feeding with the compound zhangnan-5 of 100 mg/kg for single dose. At 0.5, 1, 3, 6, 12, 24, 48, and 72 hours upon mouth feeding the drug, blood is collected via vena ophthalmica and blood plasma is made, to determine the plasma concentration of the given compound zhangnan-5.

[2] = system: human colon cancer cell HCT-116; test: Human tumor xenograft model in nude mice; type: in vivo, nude mice (nu/nu); conditions: HCT-116 xenograft, 30 mg/kg oral, 5 times a week for 3 weeks, end point 4 weeks; low = active
Excerpt: (§1) (7) Drug administration of human tumor xenograft model and nude mice tumor transplantation model: (see Harrison S D Jr; Growth of human tumor cells in athymic mice; J Natl Cancer Inst. 1991 Oct. 16; 83 (20): 1509).
(§2) T cell deficiency nude mice (nu/nu) (male, 6-week old) are bought from Charles River Lab, and are raised in pathogen-free environment according to guidelines of animal raising and using committee of university. The number of […] LNCaP, NCI-H23, HCT-116, G-361 and U-251 cells are suspended in 0.2 ml HBSS or matrigel (50: 50, v/v), and are subcutaneously vaccinated to the side abdomen region of the mice. When the average diameters of the tumors are 7˜8 mm, the mice having tumor size of 100˜200 mm3 are chosen, and are given with treatment group of compound zhangnan-5 prepared with corn oil and are only given with control group of empty carrier (corn oil), respectively.
(§3) In the oral feeding test, the compound zhangnan-5 (30 mg/kg) is dissolved in corn oil. Each day the mice are tube fed with 200 μl drug liquid in single dose (prepared with corn oil, containing 0.75 mg compound zhangnan-5) for 5 times a week and for 3 weeks. The control group is given placebo (corn oil) according to same method. The mice are raised separately, and are allowed to self-help feeding.
(§4) The tumor is measured in two vertical directions every 3˜4 days.

[3] = system: human lung cancer cell NCI-H23; test: Human tumor xenograft model in nude mice; type: in vivo, nude mice (nu/nu); conditions: 30 mg/kg oral, 5 times a week for 3 weeks, end point 4 weeks, low = active
Excerpt: as §1, §2, §3, §4

[4] = system: human malignant glioma cell U-251; test: Human tumor xenograft model in nude mice; type: in vivo, nude mice (nu/nu); conditions: U-251 xenograft, 30 mg/kg oral, 5 times a week for 3 weeks, end point 4 weeks; low = active
Excerpt: as §1, §2, §3, §4

[5] = system: human melanoma cell G-361; test: Human tumor xenograft model in nude mice; type: in vivo, nude mice (nu/nu); conditions: G-361 xenograft, 30 mg/kg oral, 5 times a week for 3 weeks, end point 4 weeks; low = active
Excerpt: as §1, §2, §3, §4

[6] = system: human prostate cancer cell LnCAP; test: Human tumor xenograft model in nude mice; type: in vivo, nude mice (nu/nu); conditions: 30 mg/kg oral, 5 times a week for 3 weeks, end point 4 weeks, low = active
Excerpt: as §1, §2, §3, §4

[7] = Side effects in the xenograft studies; conditions: tumor-bearing nude mice, 30 mg/kg oral
Excerpt: as §1, §2, §3

C=C(C)C1CCC2(C(=O)O)CCC3(C)C(CCC4C5(C)CCC(=O)C(C)(CO)C5CCC43C)C12 (stereo not shown) [zhangnan-5]
EC50 (human tumor cell strains): < 100 nM | Cmax [1]: 65 µM | Tmax [1]: 1.42 h | half-life ([1]; read-out: T½ (converted)): 11.5 h | TGI (T/C×100 of relative tumor volume) [2]: 6.9% | TGI (T/C×100 of relative tumor volume) [3]: 0% | T/C of relative tumor volume (treated/control × 100) [4]: 12.5% | TGI (T/C×100 of relative tumor volume) [5]: 10.8% | T/C of relative tumor volume (%) [6]: 5% | side effects, including changes in weight [7]: no obvious side effects have been found
